Here are results for 33 compounds from patent publication US10071133B2, “Method for destroying exosomes, kit for destroying exosomes, and method for isolating exosomes derived from normal cells” (priority 2015, dated 2018).

Ends that are not written are not given here.

The subject of the assay is exosome fraction B derived from human breast cancer cells (MDA-MB-231-luc-D3H2LN). Nature of the assay: Extraction of microRNA (miR-21) from exosomes derived from human breast cancer cells, real-time PCR. The format is biochemical. The settings on record: 100 μM peptide, 1×10^11 particles/mL exosomes, 0.4 U/μL RNase inhibitor, 37° C., 24 hours; without peptide 8×10^−14M. As for the experimental part: A cell suspension of cell line MDA-MB-231-luc-D3H2LN derived from human breast cancer (=MM231-luc-D3H2LN, provided by the National Cancer Center Research Institute) was seeded in a dish containing RPMI 1640 medium (manufactured by Thermo Fisher Scientific Inc.) containing 10% fetal bovine serum. Subsequently, the cell line was grown at 37° C. under the condition that CO2 concentration was set to 5 volume % using a CO2 incubator, and then the medium was replaced with Advanced RPMI 1640 medium (manufactured by Thermo Fisher Scientific Inc.), followed by culturing for 48 hours, and therefore the culture solution containing exosomes was obtained. This culture solution was centrifuged at 2,000 G for 10 minutes to remove the precipitate, followed by centrifugation at 110,000 G for 70 minutes to precipitate the exosomes, and therefore an exosome fraction B was recovered. The recovered exosome fraction B was suspended in a phosphate buffered saline (PBS) and then stored at 4° C. Storage samples were lightly suspended with a vortex mixer (vibration mixer) before use.
MicroRNA (miR-21 or miR-16) in the reaction solution was subjected to reverse transcription PCR using reverse transcription primers (manufactured by Thermo Fisher Scientific Inc., Taqman microRNA Assays, RT primers, and hsa-mir-21 or hsa-mir-16) and a reverse transcriptase (manufactured by Thermo Fisher Scientific Inc., Taqman microRNA RT kit).
The reverse transcription PCR solution obtained by the above described method was processed and by comparing the number of cycles on a calibration curve of microRNA using Taqman Assay primer (manufactured by Thermo Fisher Scientific Inc., Taqman microRNA Assays, Taqman Assay primer, and hsa-mir-21 or hsa-mir-16) and Real-Time PCR Master Mixes (manufactured by Thermo Fisher Scientific Inc., TaqMan Universal PCR Master Mix II, w/UNG) with StepOnePlus Real-Time PCR System, MiR-21 or miR-16 was quantified. The calibration curve of microRNA was created using synthetic miR-21 (manufactured by Sigma-Aldrich Co. LLC.) or synthetic miR-16 (manufactured by Sigma-Aldrich Co. LLC.).
10 μL of the exosome fraction was prepared such that PBS contains 1×10^11 particles/mL of the exosome fraction B derived from human breast cancer cells, various antimicrobial peptides shown in the following Table 2 adjusted to 100 μM, and 0.4 U/μL of RNase inhibitor (manufactured by Toyobo Co., Ltd.), followed by incubation by being left to stand at 37° C. for 24 hours.
MicroRNA eluted into the solution was purified and recovered from the incubated solution of Example 10 above and Comparative Example 6 above by the following method.
First, 160 μL of PBS was added to the reaction solution, and then the solution was added to a centrifugal filter (manufactured by Millipore Corporation, Amicon Ultra 0.5 mL, 100K filter) and centrifuged at 14,000 G for 2 minutes. Subsequently, 100 μL of the centrifuged filtrate was recovered and introduced into a 1.5 mL tube. Next, 350 μL of RLT buffer (manufactured by QIAGEN, attached with RNeasy mini kit) and 675 μL of ethanol were added and mixed in the 1.5 mL tube. The obtained mixture was separated into two parts, and each of the separates was added onto a spin column (manufactured by QIAGEN, attached with RNeasy mini kit) followed by centrifugation at 8,000 G for 15 seconds, and the entire amount of the mixture was passed through the spin column. Thereafter, 500 μL of RPE buffer (manufactured by QIAGEN, attached with RNeasy mini kit) was added thereto and centrifuged at 8,000 G for 15 seconds. Furthermore, 500 μL of the RPE buffer was added to the spin column once more and centrifuged at 8,000 G for 15 seconds. Thereafter, the spin column was centrifuged at 14,000 G for 1 minute to remove the residual RPE buffer. Next, 30 μL of RNase free water (manufactured by QIAGEN, attached with RNeasy mini kit) was added to the spin column, left for 1 minute, and then centrifuged at 14,000 G for 1 minute, and the eluate obtained thereby was recovered. […]

Regarding 9R: amino acid sequence RRRRRNWMWC, the “Destructive activity (concentration of microRNA miR-21 in eluate)” value (from here on “Destructive activity”) was “B (the concentration of microRNA is 10×10^−14M to 50×10^−14M)”.
With `CCCCCCCCCCCCCCCC[N+](C)(C)C.[Br-]` [1% CTAB, CTAB, reference compound] the entry was “D (the concentration of microRNA is less than 10×10^−14M)”; with `N=C(N)N` [4M guanidine, guanidine, reference compound], “D (the concentration of microRNA is less than 10×10^−14M)”.
With `CCCCCCCCCCCCCCCCCCOP(=O)([O-])OCC[P+](C)(C)C` [Octadecylphosphophosphoniumcholine, reference compound] the entry was “D (the concentration of microRNA is less than 10×10^−14M)”; with “(Gln^53)-Connexin 37 (51-58) [(Gln^53)-Connexin 37(51-58)]”, “D (the concentration of microRNA is less than 10×10^−14M)”.
With (HHPHG)3 the entry was “B (the concentration of microRNA is 10×10^−14M to 50×10^−14M)”; with (HHPHG) 2 (HHPHGHHPHG) [(HHPHG)2], “B (the concentration of microRNA is 10×10^−14M to 50×10^−14M)”; with (HHPHG) 4 [(HHPHG)4], “B (the concentration of microRNA is 10×10^−14M to 50×10^−14M)”.
As to Alloferon 1 (HGVSGHGQHGVHG), the “Destructive activity” value is “D (the concentration of microRNA is less than 10×10^−14M)”.
Next, Ascaphin-8: “B (the concentration of microRNA is 10×10^−14M to 50×10^−14M)”.
In the case of “Benzalkonium-Cl [1% Benzalkonium-Cl, reference compound]”, the “Destructive activity” value is on record as “D (the concentration of microRNA is less than 10×10^−14M)”.
Next, Buforin IIb: “B (the concentration of microRNA is 10×10^−14M to 50×10^−14M)”; “C-Reactive Protein (CRP) (174-185) (IYLGGPFSPNVL; UniProt P02741 192-203, looked up, fragment)”: “D (the concentration of microRNA is less than 10×10^−14M)”.
With “Cecropin B (KWKVFKKIEKMGRNIRNGIVKAGPAIAVLGEAKAL-NH2)” the entry was “B (the concentration of microRNA is 10×10^−14M to 50×10^−14M)”; with Defensin HNP-1, “B (the concentration of microRNA is 10×10^−14M to 50×10^−14M)”; with Dermaseptin, “B (the concentration of microRNA is 10×10^−14M to 50×10^−14M)”.
With “Dermcidin-1L (SSLLEKGLDGAKKAVGGLGKLGKDAVEDLESVGKGAVHDVKDVLDSVL)” the entry was “D (the concentration of microRNA is less than 10×10^−14M)”; with “Epinecidin-1 (GFIFHIIKGLFHAGKMIHGLV-NH2)”, “B (the concentration of microRNA is 10×10^−14M to 50×10^−14M)”; with Gageostatin C, “D (the concentration of microRNA is less than 10×10^−14M)”.
On to “Hepcidin-20 (ICIFCCGCCHRSKCGMCCKT; ends and bridges not checked; cysteine pairing not given here; UniProt P81172 65-84, looked up)”, for which the “Destructive activity” value is listed as “D (the concentration of microRNA is less than 10×10^−14M)”.
With Histatin-5 the entry was “B (the concentration of microRNA is 10×10^−14M to 50×10^−14M)”.
Turning to Macropin 1, the “Destructive activity” value was “B (the concentration of microRNA is 10×10^−14M to 50×10^−14M)”.
Regarding Maculatin 3.1, the “Destructive activity” value is reported as “B (the concentration of microRNA is 10×10^−14M to 50×10^−14M)”.
With “Magainin I (GIGKFLHSAGKFGKAFVGEIMKS) [Megainin I]” the entry was “B (the concentration of microRNA is 10×10^−14M to 50×10^−14M)”; with NK-2, “B (the concentration of microRNA is 10×10^−14M to 50×10^−14M)”; with NRC-03, “B (the concentration of microRNA is 10×10^−14M to 50×10^−14M)”.
On to NRC-07, for which the “Destructive activity” value is on record as “B (the concentration of microRNA is 10×10^−14M to 50×10^−14M)”.
Next, PTP7: “D (the concentration of microRNA is less than 10×10^−14M)”; Pardaxin 4: “B (the concentration of microRNA is 10×10^−14M to 50×10^−14M)”; Sesquin (KTCENLADTY): “D (the concentration of microRNA is less than 10×10^−14M)”.
With “Short α-helical peptides (2) (GIIKKIIKKIIKKIIKKI-NH2)” the entry was “B (the concentration of microRNA is 10×10^−14M to 50×10^−14M)”; with TsAP-2, “B (the concentration of microRNA is 10×10^−14M to 50×10^−14M)”; with Tuftsin, “B (the concentration of microRNA is 10×10^−14M to 50×10^−14M)”.
